Key:
[1] = target: T1, PDE5A1 (Homo sapiens, UniProt O76074); assay: Inhibition of type 5 phosphodiesterase (PDE5) activity, modified SPA test with human platelet lysate; type: biochemical; details: 0.5 μM cGMP, read-out: PDE5A1 inhibitory values [measured as −log IC50 (mol/l)] (converted)
T1 construct: from tissue; host or cells: human platelets from fresh donor blood (10,000 x g supernatant of sonicated lysate)
Outline: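 Enzyme source is lysate from human platelets (10,000 g supernatant). Compound preincubated 5 min at 37° C in Tris pH 7.4 containing 1 μM motapizone and 10 nM of a PDE2 inhibitor. Reaction started with 0.5 μM cGMP ([3H] tracer) and run 15 min; SPA read-out, IC50 by non-linear regression.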

[2] = target: T2, PDE4B1 (Homo sapiens, UniProt Q07343); assay: Inhibition of type 4 phosphodiesterase (PDE4) activity, modified SPA test with recombinant PDE4B1 expressed in SF21 insect cells; type: biochemical; details: recombinant PDE4B1, 0.5 μM cAMP, read-out: PDE4B1 inhibitory values [measured as −log IC50 (mol/l)] (converted)
T2 construct: made in house; host or cells: SF21 insect cells (baculovirus; pCRBac vector), 1000 x g supernatant of homogenate
T2 sequence (Q07343 whole entry): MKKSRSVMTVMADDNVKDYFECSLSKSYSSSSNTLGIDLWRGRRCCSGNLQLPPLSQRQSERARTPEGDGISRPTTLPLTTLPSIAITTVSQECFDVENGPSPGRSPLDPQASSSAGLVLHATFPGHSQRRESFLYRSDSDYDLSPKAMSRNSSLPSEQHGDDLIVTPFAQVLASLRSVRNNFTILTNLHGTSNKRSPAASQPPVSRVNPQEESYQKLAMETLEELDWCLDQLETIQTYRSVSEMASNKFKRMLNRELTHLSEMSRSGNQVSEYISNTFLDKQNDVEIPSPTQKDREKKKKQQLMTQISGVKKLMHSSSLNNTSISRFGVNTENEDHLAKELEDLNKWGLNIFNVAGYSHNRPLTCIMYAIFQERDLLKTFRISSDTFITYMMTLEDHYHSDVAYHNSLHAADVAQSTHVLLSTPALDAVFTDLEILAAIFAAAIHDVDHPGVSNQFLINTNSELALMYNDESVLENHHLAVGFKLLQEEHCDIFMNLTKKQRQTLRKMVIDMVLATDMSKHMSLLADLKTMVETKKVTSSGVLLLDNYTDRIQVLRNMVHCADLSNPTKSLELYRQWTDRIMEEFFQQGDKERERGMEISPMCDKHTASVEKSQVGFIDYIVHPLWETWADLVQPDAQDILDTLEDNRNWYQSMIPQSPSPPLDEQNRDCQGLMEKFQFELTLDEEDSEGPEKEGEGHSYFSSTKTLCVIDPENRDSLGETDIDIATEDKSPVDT
Experimental: Method for Measuring Inhibition of the Type 4 Phosphodiesterase (PDE4) Activity:
The PDE4B1 (GB no. L20966) was a gift of Prof. M. Conti (Stanford University, USA). It was amplified from the original plasmid (pCMV5) via PCR with primers Rb18 (5′-[…]-3′) and Rb10 (5′-[…]-3′) and cloned into the pCRBac vector (Invitrogen, Groningen, NL).
The recombinant baculovirus was prepared by means of homologous recombination in SF9 insect cells. The expression plasmids were cotransfected with Baculo-Gold DNA (Pharmingen, Hamburg) using a standard protocol (Pharmingen, Hamburg). Wt virus-free recombinant virus supernatants were selected using plaque assay methods. After that, high-titre virus supernatants were prepared by amplifying 3 times. PDE4B1 was expressed in SF21 cells by infecting 2×10^6 cells/ml with an MOI (multiplicity of infection) between 1 and 10 in the serum-free medium Insect Express Sf9-S2 (PAA, Pasching, Austria). The cells were cultured at 28° C. for 48-72 hours, after which they were pelleted for 5-10 min at 1000×g and 4° C.
The SF21 insect cells were resuspended, at a concentration of approx. 10^7 cells/ml, in ice-cold (4° C.) homogenization buffer (20 mM Tris, pH 8.2, containing the following additions: 140 mM NaCl, 3.8 mM KCl, 1 mM EGTA, 1 mM MgCl2, 10 mM (3-mercaptoethanol, 2 mM benzamidine, 0.4 mM Pefablock, 10 μM leupeptin, 10 μM pepstatin A, 5 μM trypsin inhibitor) and disrupted by ultrasonication. The homogenate was then centrifuged for 10 min at 1000×g and the supernatant was stored at −80° C. until subsequent use (see below). The protein content was determined by the Bradford method (BioRad, Munich) using BSA as the standard.
PDE4B1 activity was inhibited by the compounds according to the present subject matter in a modified SPA (scintillation proximity assay) test, supplied by Amersham Biosciences (see procedural instructions “phosphodiesterase [3H]cAMP SPA enzyme assay, code TRKQ 7090”), carried out in 96-well microtitre plates (MTP's). The test volume is 100 μl and contains 20 mM Tris buffer (pH 7.4), 0.1 mg/ml of BSA, 5 mM Mg^2+, 0.5 μM cAMP (including about 50,000 cpm of [3H]cAMP), 1 μl of the respective substance dilution in DMSO and sufficient recombinant PDE (1000×g supernatant, see above) to ensure that 10-20% of the cAMP is converted under the said experimental conditions. […] After a preincubation of 5 min at 37° C., the reaction is started by adding the substrate (cAMP) and the assays are incubated for a further 15 min; after that, they are stopped by adding SPA beads (50 μl). In accordance with the manufacturer's instructions, the SPA beads had previously been resuspended in water, but were then diluted 1:3 (v/v) in water; the diluted solution also contains 3 mM IBMX to ensure a complete PDE activity stop. After the beads have been sedimented (>30 min), the MTP's are analyzed in commercially available luminescence detection devices. The corresponding IC50 values of the compounds for the inhibition of PDE4B1 activity are determined from the concentration-effect curves by means of non-linear regression.

| IC50 [1] [nM] | IC50 [2] [nM] | Structure (SMILES) |
| --- | --- | --- |
| < 1 | < 100 | CC(=O)N[C@H]1CC[C@H](NC(=O)c2c(C)[nH]c3c(-c4cc(C(F)F)ccc4OCC4CC4)ncnc23)C[C@@H]1F (relative stereo) [Example P209, N-[(1S*,3S*,4S*)-4-(Acetylamino)-3-fluorocyclohexyl]-4-[2-(cyclopropylmethoxy)-5-(difluoromethyl)phenyl]-6-methyl-5H-pyrrolo[3,2-d]pyrimidine-7-carboxamide] |
| < 1 | 100 to 1000 | CCC(=O)N1CCC(NC(=O)c2c(C)[nH]c3c(-c4cc(CC)ccc4OCC4CC4)ncnc23)CC1 [Example E146, 4-[2-(Cyclopropylmethoxy)-5-ethylphenyl]-6-methyl-N-(1-propanoylpiperidin-4-yl)-5H-pyrrolo[3,2-d]pyrimidine-7-carboxamide] |
| < 1 | 100 to 1000 | COCC(=O)N1CCC(NC(=O)c2c(C)[nH]c3c(-c4cc(C)ccc4OCC4CC4)nc(C)nc23)CC1 [Example E171, 4-[2-(Cyclopropylmethoxy)-5-methylphenyl]-N-[1-(methoxyacetyl)piperidin-4-yl]-2,6-dimethyl-5H-pyrrolo[3,2-d]pyrimidine-7-carboxamide] |
| < 1 | < 100 | COCC(=O)N[C@H]1CC[C@H](NC(=O)c2c(C)[nH]c3c(-c4cc(C(F)F)ccc4OCC4CC4)ncnc23)[C@@H](C)C1 (relative stereo) [Example P141, 4-[2-(Cyclopropylmethoxy)-5-(difluoromethyl)phenyl]-N-{(1S*,2S*,4S*)-4-[(methoxyacetyl)amino]-2-methylcyclohexyl}-6-methyl-5H-pyrrolo[3,2-d]pyrimidine-7-carboxamide] |
| < 1 | < 100 | Cc1[nH]c2c(-c3cc(C(F)(F)F)ccc3OCC3CC3)ncnc2c1C(=O)N[C@H]1CC[C@H](NC(=O)[C@H](C)O)CC1 [Example F60, 4-[2-(Cyclopropylmethoxy)-5-(trifluoromethyl)phenyl]-N-(trans-4-{[(2S)-2-hydroxypropanoyl]amino}cyclohexyl)-6-methyl-5H-pyrrolo[3,2-d]pyrimidine-7-carboxamide] |
| < 1 | < 100 | Cc1[nH]c2c(-c3cc(F)ccc3OCC3CC3)ncnc2c1C(=O)N[C@H]1CC[C@H](NC(=O)[C@H](C)O)CC1 [Example F26, 4-[2-(Cyclopropylmethoxy)-5-fluorophenyl]-N-(trans-4-{[(2S)-2-hydroxypropanoyl]amino}cyclohexyl)-6-methyl-5H-pyrrolo[3,2-d]pyrimidine-7-carboxamide] |
| < 1 | < 100 | Cc1[nH]c2c(-c3cc(C(F)(F)F)ccc3OCC3CC3)ncnc2c1C(=O)N[C@H]1CC[C@@H](NC(=O)CO)CC1 [Example F61, 4-[2-(Cyclopropylmethoxy)-5-(trifluoromethyl)phenyl]-N-{cis-4-[(hydroxyacetyl)amino]cyclohexyl}-6-methyl-5H-pyrrolo[3,2-d]pyrimidine-7-carboxamide] |
| 1 to 10 | 100 to 1000 | CC(=O)N[C@H]1CC[C@@H](NC(=O)c2c(C)[nH]c3c(-c4cc(F)ccc4OCC4CC4)ncnc23)CC1 [Example E45, N-(cis-4-acetamidocyclohexyl)-4-[2-(cyclopropylmethoxy)-5-fluorophenyl]-6-methyl-5H-pyrrolo[3,2-d]pyrimidine-7-carboxamide] |
| < 1 | < 100 | CCC(=O)N[C@H]1CC[C@H](NC(=O)c2c(C)[nH]c3c(-c4cc(F)ccc4OCC4CC4)ncnc23)CC1 [Example E42, 4-[2-(Cyclopropylmethoxy)-5-fluorophenyl]-6-methyl-N-[trans-4-(propionylamino)cyclohexyl]-5H-pyrrolo[3,2-d]pyrimidine-7-carboxamide] |
| < 1 | < 100 | COCC(=O)N1CCC(NC(=O)c2c(C)[nH]c3c(-c4cc(C(F)(F)F)ccc4OCC4CC4)ncnc23)CC1 [Example E92, 4-[2-(Cyclopropylmethoxy)-5-(trifluoromethyl)phenyl]-N-[1-(methoxyacetyl)piperidin-4-yl]-6-methyl-5H-pyrrolo[3,2-d]pyrimidine-7-carboxamide] |

— patent US9376442B2, “Methylpyrrolopyrimidinecarboxamides” (Takeda GmbH, priority 2009, dated 2016)
